From patent US4062958A, “Method of treating anxiety and compositions therefor” (American Cyanamid Company, priority 1976, dated 1977)

Tests used:
[1] = tested on: clonic seizures caused by pentylenetetrazole; test: Protection against clonic seizures caused by pentylenetetrazole in rats; type: in vivo; conditions: Rattus norvegicus, oral, 2% starch vehicle, groups of at least 5, pentylenetetrazole 21 to 23 mg./kg. i.v. at estimated time of peak effect, read-out: Medium Effective Oral Dose ED50, protection against clonic seizures caused by pentylenetetrazole
Method: The anti-anxiety properties of the active compound of the present invention has been established in a test which indicates anxiolytic activity by the measure of protection from convulsions resulting from the administration of pentylenetetrazole. Graded dose levels of the compound of this invention were administered orally, in a 2% starch vehicle, to groups of at least 5 rats. At the estimated time of peak effect, the rats were treated intravenously with pentylenetetrazole at a dose of 21 to 23 mg./kg. of body weight. This dose is estimated to cause clonic seizures in 99% of unprotected rats. The effective dose (ED50) of the test compound for protection of 50% of the animals is calculated by the method of D. H. Finney in "Statistical Methods in Biological Assay", Second Edition, Hafner Publishing Co., New York, 1964, pp. 456-457. Representative results are given in the table which follows in comparison with chlordiazepoxide and meprobamate, which were tested in exactly the same manner. It has been reported [R. T. Hill and D. H. Tedeschi, "Animal Testing and Screening Procedures in Evaluating Psychotropic Drugs" in An Introduction of Psychopharmacology, Eds. R. R. Rech and K. E. Moore, Raven Press, New York, pp. 237-288 (1971)] that there is a high degree of correlation between antagonism of pentylenetetrazole seizures in rats and anti-anxiety effects in higher warm-blooded animals.

[2] = tested on: conflict situation induced in rats (number of shocks received); test: Non-conditioned passive avoidance (conflict) procedure in rats; type: in vivo; conditions: Sprague-Dawley rats, positive = 9 or more shocks in 4 to 5 minutes; for ED50: Rattus norvegicus, oral, comparison drugs tested in exactly the same manner, read-out: median effective dose (ED50)
Method: Another test which has been used to assess anti-anxiety effects is a non-conditioned passive avoidance procedure described by J. R. Vogel, B. Beer and D. E. Clody, "A Simple and Reliable Conflict Procedure for Testing Anti-Anxiety Agents", Psychopharmacologia, Vol. 21, pp. 1-7 (1971). A conflict situation is induced in rats by a modification of this method. To groups of six naive Sprague-Dawley rats (200-220 grams), previously deprived of water for forty-eight hours and food for 24 hours, are administered graded oral doses of test compound suspended in 2% starch vehicle also containing 2 drops of polyethylene glycol and polysorbate 80, or vehicle alone (controls). At the time of peak effect each rat is placed in a plexiglass box fitted with a drinkometer circuit connected between the stainless steel grid floor and a stainless steel drinking tube inserted in a hole in one of the walls of the box. A stimulator supplying monophasic 60 cycle square wave pulses of 0.2 milliamperes peak intensity, a timer which allows alternate 5 second " shock free" and 5 second "shock available" periods during a 5 minute test period, an electromagnetic counter to count the number of shocks received by the rat during the shock available period and a delay of one half second between the successive shocks are incorporated into the drinkometer circuit. After the rat is placed in the box, it is allowed to explore and drink 10% dextrose solution supplied through the tap. After twenty seconds of continuous unpunished drinking, the timer and drinkometer circuits are activated and 5 second shock free and 5 second shock available periods alternate. The number of shocks received by the rat during a 5 minute test period is recorded. The percentage of rats that receive 9 or more shocks in 4 to 5 minutes at each dose level is used as positive response in calculation of the median effective dose (ED50). The estimated (ED50) for the compound 3-methyl-6-phenyl-1,2,4-triazolo[4,3-b]pyridazine after one hour from oral administration is 100 mg./kg.

Structure (SMILES)	ED50 [1]	ED50 [2]	estimated median effective dose (ED50) ([2]; one hour after oral administration)
CCCC(C)(COC(N)=O)COC(N)=O [Meprobamate]	22 mg/kg	51.9 mg/kg	–
Cc1nnc2ccc(-c3ccccc3)nn12 [3-methyl-6-phenyl-1,2,4-triazolo[4,3-b]pyridazine]	3 mg/kg	–	100 mg/kg
CNC1=Nc2ccc(Cl)cc2C(c2ccccc2)=[N+]([O-])C1 [Chlordiazepoxide]	2.5 mg/kg	9.6 mg/kg	–
